Several values for one entry are separate records, joined by “and”; a condition that tells them apart may be missing. Identical values can stand only once.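 The compound was tested at five concentrations on cells cultured in 96-well plates, with a 48-hour exposure period. Here, GI50 denotes the concentration required for 50% inhibition of growth. Definition used: TGI = concentration required for complete inhibition of growth.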
Experiments:
Assay in all cases: inhibition of tumour cell growth, NCI panel, 48 h
[1] = tested on: 786-0 renal
[2] = tested on: MOLT-4 leukemia
[3] = tested on: HS 578T breast
[4] = tested on: HCC-2998 colon
[5] = tested on: U251 CNS
[6] = tested on: SW-620 colon
[7] = tested on: SK-OV-3 ovarian
[8] = tested on: HOP-62 NSCLC
[9] = tested on: SK-MEL-5 melanoma
[10] = tested on: NCI-H23 lung
[11] = tested on: UACC-62 melanoma
[12] = tested on: SF-539 CNS
[13] = tested on: HCT-15 colon
[14] = tested on: SNB-75 CNS
[15] = tested on: COLO 205 colon
[16] = tested on: SN12C renal
[17] = tested on: SR leukemia
[18] = tested on: HL-60(TB) leukemia
[19] = tested on: MDA-N

## CCN(CC)c1ccc(C2SCC(=O)N2c2ccc(NC(=O)c3ccc(N4C(=O)CSC4c4ccc(N(CC)CC)cc4)cc3)cc2)cc1 (stereo not drawn)
[1]
  TGI: > 100 µM
[2]
  TGI: > 100 µM
[3]
  TGI: > 100 µM
[4]
  TGI: > 100 µM
[5]
  TGI: > 100 µM
[6]
  TGI: > 100 µM
[7]
  TGI: > 100 µM
[8]
  TGI: > 100 µM
[9]
  TGI: > 100 µM
[10]
  TGI: > 100 µM
[11]
  TGI: > 100 µM
[12]
  TGI: > 100 µM
[13]
  TGI: > 100 µM
[14]
  TGI: > 100 µM
[15]
  TGI: > 100 µM
[16]
  TGI: > 100 µM

## COc1c(OC)c(N)c2cc(C)c(=O)c(C)cc2c1N
[1]
  TGI: > 100 µM
[2]
  TGI: > 100 µM
[17]
  TGI: 45.7 µM
[4]
  TGI: > 100 µM
[5]
  TGI: > 100 µM
[6]
  TGI: 35 µM
[7]
  TGI: > 100 µM
[8]
  TGI: > 100 µM
[9]
  TGI: > 100 µM
[10]
  TGI: > 100 µM
[11]
  TGI: > 100 µM
[12]
  TGI: > 100 µM
[13]
  TGI: > 100 µM
[18]
  TGI: > 100 µM
[14]
  TGI: > 100 µM
[15]
  TGI: > 100 µM
[16]
  TGI: > 100 µM

## CC1(C)C2CCC(N)(C2)C1N (stereo not drawn)
[1]
  TGI: > 100 µM
[2]
  TGI: > 100 µM
[17]
  TGI: > 100 µM
[4]
  TGI: > 100 µM
[19]
  TGI: > 100 µM
[5]
  TGI: > 100 µM
[6]
  TGI: > 100 µM
[7]
  TGI: > 100 µM
[8]
  TGI: > 100 µM
[9]
  TGI: > 100 µM
[10]
  TGI: > 100 µM
[11]
  TGI: > 100 µM
[13]
  TGI: > 100 µM
[18]
  TGI: > 100 µM
[14]
  TGI: > 100 µM
[15]
  TGI: > 100 µM
[16]
  TGI: > 100 µM

## COc1cc(C2c3cc4c(cc3[C@@H](NCCN3CCCCC3)C3COC(=O)[C@H]23)OCO4)cc(OC)c1O (stereo partly drawn)
[1]
  TGI: 1.01 µM and 0.808 µM
[2]
  TGI: 0.0735 µM and 0.0311 µM
[4]
  GI50: 0.427 µM and 1.09 µM
  TGI: 1.97 µM and 2.37 µM
[5]
  TGI: 1.44 µM and 1.62 µM
[6]
  TGI: 11.4 µM and 10.2 µM
[7]
  TGI: 0.877 µM and 0.484 µM
[8]
  TGI: 0.283 µM
[9]
  TGI: 1.93 µM and 2.19 µM
[10]
  TGI: 1.39 µM and 1.48 µM
[11]
  TGI: 1.73 µM and 1.79 µM
[12]
  TGI: 0.842 µM and 0.896 µM
[13]
  TGI: 2.26 µM and 2.15 µM
[18]
  TGI: 0.402 µM and 0.36 µM
[14]
  TGI: 2.9 µM
[15]
  TGI: > 100 µM
[16]
  TGI: 5.81 µM and 5.85 µM

## N#CCC(=O)c1cc(OCc2cc(OCc3ccc(Br)cc3)cc(OCc3ccc(Br)cc3)c2)cc(OCc2cc(OCc3ccc(Br)cc3)cc(OCc3ccc(Br)cc3)c2)c1
[1]
  TGI: > 100 µM
[4]
  TGI: > 100 µM
[19]
  TGI: > 100 µM
[5]
  TGI: > 100 µM
[7]
  TGI: > 100 µM
[8]
  TGI: > 100 µM
[9]
  TGI: > 100 µM
[10]
  TGI: > 100 µM
[11]
  TGI: > 100 µM
[13]
  TGI: > 100 µM
[14]
  TGI: > 100 µM
[15]
  TGI: > 100 µM
[16]
  TGI: > 100 µM

## NC1=NNC2(C(=O)N1)c1ccccc1-c1ccccc12
[1]
  TGI: > 10 µM
[2]
  TGI: > 10 µM
[17]
  TGI: > 10 µM
[4]
  TGI: > 10 µM
[19]
  TGI: > 10 µM
[5]
  TGI: > 10 µM
[6]
  TGI: > 10 µM
[7]
  TGI: > 10 µM
[8]
  TGI: > 10 µM
[9]
  TGI: > 10 µM
[10]
  TGI: > 10 µM
[12]
  TGI: > 10 µM
[13]
  TGI: > 10 µM
[18]
  TGI: > 10 µM
[14]
  TGI: > 10 µM
[15]
  TGI: > 10 µM
[16]
  TGI: > 10 µM

## COc1ccc(N(C)Sc2ccccc2)cc1
[1]
  TGI: 34.9 µM
[2]
  TGI: 75.6 µM
[17]
  TGI: > 100 µM
[4]
  TGI: > 100 µM
[5]
  TGI: > 100 µM
[6]
  TGI: > 100 µM
[7]
  TGI: > 100 µM
[8]
  TGI: > 100 µM
[9]
  TGI: > 100 µM
[10]
  TGI: > 100 µM
[11]
  TGI: > 100 µM
[12]
  TGI: 56 µM
[13]
  TGI: > 100 µM
[18]
  TGI: 52.3 µM
[15]
  TGI: > 100 µM
[16]
  TGI: 75.3 µM
